Data reported in patent EP4772500A1, “NOVEL ISOXAZOLE COMPOUND AS TM4SF5-SPECIFIC INHIBITOR AND USE THEREOF” (Seoul National University R&DB Foundation, priority 2023, dated 2025).
Where two headings read alike, the source gives them in different places.

Target: T1, Strep-TM4SF5 obtained from HEK293FT (Homo sapiens, UniProt O14894)
T1 construct: expressed in transfected cells; host or cells: HEK293FT, transient transfection (48 h); protein captured on streptavidin agarose from the cell extract
T1 sequence (O14894 1-197): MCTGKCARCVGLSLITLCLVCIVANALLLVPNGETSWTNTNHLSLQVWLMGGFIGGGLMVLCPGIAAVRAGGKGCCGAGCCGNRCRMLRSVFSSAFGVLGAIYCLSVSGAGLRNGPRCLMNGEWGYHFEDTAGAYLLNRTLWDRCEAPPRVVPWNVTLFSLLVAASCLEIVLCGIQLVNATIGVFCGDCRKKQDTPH
Test: Binding of 14C-labelled ST-5-002 to pulled-down Strep-TM4SF5
Method: For Huh7KO cells, stable cell lines were established by infecting with a retrovirus inducing the expression of pBabe-HA-EV or pBabe-HA-TM4SF5. Cell extracts were obtained, and extracts containing 0.2 or 0.25 mg of protein were reacted with an anti-HA antibody and HA-tagged TM4SF5, or with streptavidin agarose resin for Strep-PD-L1 or Strep-TM4SF5 at 4°C for 2 hours for pulldown. Subsequently, in the presence or absence of cold ST-5-002 (400 µM), the samples were treated with ^14C-labelled ST-5-002 (10 or 25 µM) and reacted at 4°C for 1 hour, after which radioactive isotope values were repeatedly measured using a TriCarb scintillation counter (PerkinElmer, Waltham, MA).
After culturing HEK293FT cells transfected with Strep-EV or Strep-TM4SF5 expression vectors, or Huh7KO cells stably expressing pBabe-HA-EV or pBabe-HA-TM4SF5, cell extracts were obtained. Extracts containing 1 mg of protein were pulled down by reacting with streptavidin agarose resin for Strep-tagged TM4SF5 or with an anti-HA antibody for HA-tagged TM4SF5 at 4°C for 4 hours. The pulled-down proteins were treated with ^14C-labelled ST-5-002 at various concentrations (10 nM, 100 nM, 1 µM, 5 µM, 10 µM, 50 µM) and reacted at 4°C for 1 hour, after which radioactive isotope values were repeatedly measured using a TriCarb scintillation counter (PerkinElmer, Waltham, MA). The EC50 was calculated by normalizing the average radioactive isotope value of TM4SF5 obtained through the measurements by dividing it by the average value of EV.
(a) Expression vectors for a control vector, TM4SF1, TM4SF5 WT, and R113Q, C118/145A, H127A, and N138A mutants of TM4SF5 were injected into the HEK293FT cell line, which was confirmed not to express TM4SF5, and allowed to express for 48 hours. (b) Huh7KO cell lines, in which TM4SF5 was knocked out in Huh7, were stably infected with a retrovirus encoding pBabe-EV or pBabe-TM4SF5-HA. […] For the experimental samples of each condition, radioactive isotope values were repeatedly measured using a TriCarb scintillation counter (PerkinElmer, Waltham, MA).

EC50 (14C-labelled ST-5-002, Strep-TM4SF5, 4°C, 1 hour (FIG. 19a), read-out: EC50 of binding to TM4SF5): 8.87 µM
binding of 14C-labelled ST-5-002 compared to the control and TM4SF1 (Strep-TM4SF5 from HEK293FT (FIG. 19a)): bound
EC50 (range depending on the cell source and the type of tag (Strep-TM4SF5 and HA-TM4SF5), read-out: EC50 values of binding to TM4SF5): 0.85 to 8.8 µM
Compound: Cc1ccc(C(=O)Nc2ccc(-c3cc(-c4ccc(O)cc4)no3)cc2)cc1 [ST-5-002, N-(4-(3-(4-hydroxyphenyl)isoxazole-5-yl)phenyl)-4-methylbenzamide]
